Laboratory results as given in PubChem BioAssay AID504313 (Emory University Molecular Libraries Screening Center, 2011).
Calls of active or inactive are those of the source. The rule behind the calls is not given here.

These compounds were tested against X-box-binding protein 1 (Homo sapiens) (UniProt P17861) (assay: XBP1 reporter suppression in cells – counter-screen, dose response (AID 504313;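 note: CHO cells carrying an XBP1 reporter stimulated with tunicamycin; potency is for inhibition of the tunicamycin-induced reporter signal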)). Conditions: XBP1 reporter cell assay, percent of control.

SMILES | IC50
COc1ccc(C2=NN(C(=O)c3ccco3)C(c3cc4ccccc4nc3Cl)C2)cc1 (stereo unspecified) | > 10 µM (inactive)
COc1ccc(C(=O)NC(=O)Nc2cc(C)ccn2)cc1 | inactive
CCCCCCn1c(CN2CCCC(C)C2)nc2c1c(=O)n(C)c(=O)n2C (stereo unspecified) | > 10 µM (inactive)
O=[N+]([O-])c1ccc(-c2nc(C(Cl)Cl)c3ccccc3n2)cc1 | 1.34 µM
COc1cccc(NC(=O)CSc2nnc(-c3cc(C)n(-c4ccccc4)c3C)o2)c1 | 0.41 µM
CCN1/C(=C/C(C)=C/c2sc3ccccc3[n+]2CC)Sc2ccccc21 | > 10 µM (inactive)
C[C@H](NC(=O)c1[nH]cnc1C(=O)Nc1ccc(CNC(=O)OC(C)(C)C)cc1)C(=O)OC(C)(C)C | inactive
CCN(CC)S(=O)(=O)c1cccc(NC(=O)Nc2cccc(C(F)(F)F)c2)c1 | inactive
Cc1cc(/C=N/n2cnnc2)c(C)n1-c1ccc(OCc2ccc(Cl)cc2)cc1 | 0.56 µM
O=[N+]([O-])c1c(NCCCO)cc(Sc2nc3ccccc3s2)c2nonc12 | inactive
COc1ccc(C(=O)/C=C/C(=O)N(CC(=O)NC2CCCCC2)Cc2ccc(F)cc2)c(O)c1 | 2.25 µM
Cc1ccccc1/C=N/Nc1ccnc2cc(Cl)ccc12 | > 10 µM (inactive)
Cc1cccc(/C=N/Nc2ccc3ccccc3n2)c1 | inactive
CCCc1cc(C(=O)Cc2ccc(F)cc2)c(O)cc1O | inactive
CCCCCCn1c(N2CCC(C)CC2)nc2c1c(=O)[nH]c(=O)n2C | > 10 µM (inactive)
O=C(Nc1ccccc1Cl)c1ccccc1Oc1ccc(C(F)(F)F)cc1[N+](=O)[O-] | inactive
NC(=O)c1ccc(C(F)(F)F)n(Cc2ccc(Cl)cc2)c1=O | inactive
COc1ccc(C(=O)/C=C/C(=O)N(CC(=O)NCCC(C)C)Cc2cccs2)c(O)c1 | inactive
Oc1ccc(Cl)cc1-c1cc(-c2ccccc2)n[nH]1 | > 10 µM (inactive)
CC1=C(C)/C(=N\OS(=O)(=O)c2ccc(C)cc2)C=CC1=O | 1.63 µM
O=C(CSC1c2ccccc2-c2ccccc21)N/N=C/c1ccccc1O | > 10 µM (inactive)
COc1cc(/C=C(/C#N)c2nc3ccccc3[nH]2)ccc1OCC(=O)Nc1ccccc1C(C)C | inactive
CCC(CC)c1nnc(NC(=O)c2c(C)nn(Cc3ccccc3Cl)c2C)s1 | > 10 µM (inactive)
O=S(=O)(NC1CC1)c1ccc(S(=O)(=O)N2CCCC3(CCCCC3)C2)cc1 | inactive

SMILES | IC50
C#CC(=O)N(c1cc(OC)ccc1OC)C(C(=O)NC1CCCC1)c1cccs1 (stereo unspecified) | inactive
O=C(/C=C/c1ccccc1)Nc1cccc(C(=O)O)c1 | inactive
Cc1nc2c(=O)n(C)c(=O)n(C)c2nc1Cl | inactive
CCSCCc1nnc(NC(=O)Nc2cccc(C(F)(F)F)c2)s1 | 4.74 µM
CCOC(=O)c1c(C)[nH]c2c1-c1ccccc1C(=O)C2=O | 1.41 µM
CC1CCCC(NCC(O)COC(c2ccc(F)cc2)c2ccc(F)cc2)C1C (stereo unspecified) | inactive
COc1ccc(Cn2c(SCc3cc(C)ccc3C)nc3cc(OC)c(OC)cc3c2=N)cc1 | inactive
O=C(CCl)Nc1cccc(-c2cnc3ccccc3n2)c1 | > 10 µM (inactive)
CC(C)c1ccc(-c2cc(C(=O)N3N=C(C(F)F)CC3(O)C(F)F)c3ccccc3n2)cc1 (stereo unspecified) | 5.02 µM
O=C1C=CC(=O)N1CCCCCCN1C(=O)C=CC1=O | inactive
Cc1ccc(NC(=O)CCl)cc1S(=O)(=O)N1CCCCCC1 | inactive
COc1cc([C@@H]2c3cc4c(cc3[C@@H](O)[C@@H](CO)[C@@H]2CO)OCO4)cc(OC)c1O[Si](C)(C)C(C)(C)C | inactive
CCCCCCn1c(=O)c(C(=O)Nc2cnccn2)c(O)c2ccccc21 | 1.8 µM
COc1ccccc1NC(=O)c1c(Nc2ccccc2C)sc(C(=O)Nc2cccc(Cl)c2)c1N | > 10 µM (inactive)
COc1ccc(-c2nc(NC(=O)Cn3ccc(C(F)(F)F)n3)sc2C)cc1 | > 10 µM (inactive)
O=c1oc2ccccc2c(Cl)c1CN1CCCCC1 | inactive
O=S1(=O)C=C(Sc2nnc(-c3ccccc3)o2)c2ccccc21 | inactive
Cc1ccc(CNCc2cc3c(C(C)(C)C)nn(-c4ccccc4)c3[nH]c2=O)cc1 | inactive
Oc1ccc(Br)cc1-c1cc(-c2ccccc2F)[nH]n1 | > 10 µM (inactive)
Nc1c(C(=O)Nc2ccc(S(=O)(=O)N3CCCC3)cc2)sc2nc3ccc(OC(F)(F)F)cc3cc12 | inactive
O=C(NNc1ccccc1[N+](=O)[O-])Nc1ccc(Cl)c(Cl)c1 | > 10 µM (inactive)
CCOC(=O)C1=C(O)/C(=C/c2ccc(CNC(=O)C(=O)Nc3ccc(C)cc3)o2)N=C1C | > 10 µM (inactive)
CCCC(=O)OCCNc1cc(Sc2nc3ccccc3[nH]2)c2nonc2c1[N+](=O)[O-] | inactive
O=C1C(N2CCOCC2)=C(n2nnc3ccccc32)C(=O)c2ccccc21 | inactive

SMILES | IC50
C[C@H](NC(=O)c1nc[nH]c1C(=O)N[C@@H](Cc1ccccc1)C(=O)OC(C)(C)C)C(=O)OC(C)(C)C | inactive
O=C(CN1CCN(c2ncc(C(F)(F)F)cc2Cl)CC1)NCCNc1ncc(C(F)(F)F)cc1Cl | inactive
COc1ccc2c(C)nc(Nc3nc(C)c(C)c(=O)[nH]3)nc2c1 | < 0.16 µM
O=C1CC(c2ccco2)CC(O)=C1C=Nc1ccccc1-c1ccccc1 (stereo unspecified) | inactive
CCCC(=O)N1CCN(c2ccc(NC(=O)c3cc4ccccc4o3)cc2Cl)CC1 | inactive
COc1ccccc1-c1cc(C(F)(F)F)nc(S(=O)(=O)CCCC(=O)NC(C)C)n1 | inactive
O=C(Nc1ccccc1NC(=O)NC1CCCCC1)NC1CCCCC1 | inactive
COc1cc(NC(=O)COc2ccccc2[N+](=O)[O-])ccc1NC(=O)c1cccs1 | > 10 µM (inactive)
CC(C)c1nnc(NC(=O)c2c(O)c3cccc4c3n(c2=O)CCC4)s1 | 4.37 µM
Cc1ccc(-c2cc3c(nn2)-c2ccccc2C3=O)cc1 | inactive
CC(C)(C)c1ccc(Oc2ccc(N)cc2)cc1 | < 0.16 µM
O=C(CCl)N(Cc1cccc([N+](=O)[O-])c1)c1cccc(Cl)c1 | inactive
CN(C)c1ccc(-c2nc3ccccn3c2/N=C/c2ccc(Br)cc2)cc1 | > 10 µM (inactive)
O=C(NC(c1ccccc1)c1c(O)ccc2ccccc12)c1ccccc1Cl (stereo unspecified) | inactive
CC(C)(C)c1cc(CN2CCCC(O)C2)c(O)c(C(C)(C)C)c1 (stereo unspecified) | inactive
CN(CCCC[C@H](CNCc1ccc(-c2ccccc2)cc1)N1C[C@H](c2ccccc2)N(CCc2ccc(Cl)c(Cl)c2)C(=O)C1=O)Cc1ccc(-c2ccccc2)cc1 | inactive
Cc1ccc(NC(=O)c2cc3ccccc3oc2=O)cc1S(=O)(=O)N(C)C | < 0.16 µM
COc1ccc(/C=N\NC(=O)COc2ccc(C(C)(C)C)cc2)cc1Cn1nc(C)cc1C | inactive
CC1CCN(c2nc3ccc(C(=O)O)cc3s2)CC1 | inactive
O=S(=O)(C/C(=C/CO)S(=O)(=O)c1ccccc1)c1ccccc1 | 3.44 µM
Cc1ccc(N=Cc2cc3c(cc2O)OC(N)=C(C#N)C3c2ccccc2)cc1 (stereo unspecified) | > 10 µM (inactive)
CCCCCCOC(=O)Nc1ccc(S(=O)(=O)Nc2cccc([N+](=O)[O-])c2)cc1 | > 10 µM (inactive)
O=S1(=O)C=C(Sc2nc3cc(Cl)ccc3o2)c2ccccc21 | 4.42 µM
